Read-outs that look alike come from different tables or passages of the source. Numbered stars: 1 amine (or outer) side, 2 acyl side, 3 side chain; on linkers, the order of the positions; unused ones are H or OH. Square brackets hold non-standard residues; d marks the D form. Side chains are listed from the residue outwards. Peptide text beside a SMILES is read from it. * marks the point of attachment. C20 diacid = O=C(O)CCCCCCCCCCCCCCCCCCC(=O)*; C18 diacid = O=C(O)CCCCCCCCCCCCCCCCC(=O)*; γGlu = O=C(O)[C@H](CCC(=O)[*:2])N[*:1]; αMeL = CC(C)C[C@](C)(N)C(=O)O; Orn = NCCC[C@H](N)C(=O)O; AEEA = NCCOCCOCC(=O)O; Aib = CC(C)(N)C(=O)O
Columns and labels:
human GLP-1R [1] = biological target: T1, human GLP-1R (Homo sapiens, UniProt P43220); experiment: GLP-1R CHO cell β-arrestin recruitment assay; type: cell-based; parameters: host or cells: CHO-K1 PathHunter cells, assay-ready frozen; settings: for EC50: CHO-K1 cells; for hGLP1R B-Arrestin2 % Top: normalized to GLP-1 maximum control
T1 sequence (P43220 24-463): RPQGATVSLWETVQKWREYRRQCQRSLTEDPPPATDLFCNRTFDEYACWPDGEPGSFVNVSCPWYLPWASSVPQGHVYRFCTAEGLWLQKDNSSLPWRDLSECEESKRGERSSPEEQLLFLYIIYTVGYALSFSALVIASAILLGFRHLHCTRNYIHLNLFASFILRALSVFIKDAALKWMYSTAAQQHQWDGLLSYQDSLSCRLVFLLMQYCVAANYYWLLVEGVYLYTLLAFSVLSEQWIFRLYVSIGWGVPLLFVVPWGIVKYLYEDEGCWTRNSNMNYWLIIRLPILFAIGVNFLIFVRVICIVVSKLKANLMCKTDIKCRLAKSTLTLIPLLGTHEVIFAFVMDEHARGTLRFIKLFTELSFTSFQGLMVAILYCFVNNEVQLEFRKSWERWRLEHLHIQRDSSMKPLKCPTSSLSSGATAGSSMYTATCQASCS
From the text: Activated G-protein coupled receptors can interact with the β-arrestin family of signalling proteins. […] CHO-K1 cells expressing Pro-Link-tagged Human GLP-1R and enzyme-acceptor-tagged β-arrestin-2 may be obtained from DiscoveRx and prepared as assay-ready frozen cells. Test peptides are solubilized in DMSO and serial dilutions are perfomed using the Echo acoustic dispenser (LabCyte). Assay media is the PathHunter Cell Assay Buffer (DiscoveRx) containing 0.1% w/v hydrolyzed Casein (Sigma). […] Plates are incubated for 90 minutes in a 37′C/5% C02 incubator and 10 ul of PathHunter detection reagent is added (DiscoveRx) and plates are incubated at room temperature for 60 minutes. Luminescence signal is measured. Peptide concentration-response curves fit to a four-parameter logistic model to calculate potency as an EC50.

human GIP receptor = biological target: T2, human GIP receptor (Homo sapiens, UniProt P48546); experiment: [125I]-GIP binding (SPA), human GIP receptor; settings: read-out: hGIPR Ki, nM (SEM, n)
T2 construct: expressed in transfected cells; crude membranes
T2 sequence (P48546 22-466): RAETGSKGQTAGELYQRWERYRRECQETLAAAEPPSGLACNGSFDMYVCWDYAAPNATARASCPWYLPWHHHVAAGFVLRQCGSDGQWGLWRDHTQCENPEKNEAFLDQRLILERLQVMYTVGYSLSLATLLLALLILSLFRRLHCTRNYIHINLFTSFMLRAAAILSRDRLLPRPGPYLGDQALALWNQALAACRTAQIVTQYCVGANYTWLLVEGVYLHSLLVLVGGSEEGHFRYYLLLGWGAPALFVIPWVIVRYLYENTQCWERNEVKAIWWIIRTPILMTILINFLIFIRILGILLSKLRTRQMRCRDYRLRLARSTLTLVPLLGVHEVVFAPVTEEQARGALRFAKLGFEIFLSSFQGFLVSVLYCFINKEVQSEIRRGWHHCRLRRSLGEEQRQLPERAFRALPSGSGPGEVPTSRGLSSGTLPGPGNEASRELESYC

[2] = biological target: human GLP-1 receptor (GLP-1R) (Homo sapiens, UniProt P43220); experiment: cAMP pharmacological functional assay in presence of casein, hGLP-1R; type: cell-based; settings: HEK293 cells expressing hGLP-1R, 0.1% Casein, geometric mean; read-out: hGLP1R cAMP Rel EC50 nM (SEM, n)
Sequence of human GLP-1 receptor (GLP-1R) (P43220 24-463): as the sequence (P43220 24-463) above

human GLP-1R [3] = biological target: T1, human GLP-1R; experiment: [125I]-GLP-1 binding (SPA), human GLP-1 receptor; parameters: expressed in transfected cells; crude membranes; settings: read-out: hGLP1R Ki, (nM) (SEM, n)
Summary of the method: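 Membranes: hypotonic lysis (50 mM Tris HCl, pH 7.5, protease inhibitors), Potter-Elvehjem homogenization, high-speed pellet (35000×g 1 h or 25000×g 30 min, 4° C.). Buffer: 25 mM HEPES pH 7.4, 2.5 mM CaCl2, 1 mM MgCl2. Four-parameter IC50 fit; Ki as geometric mean ± SEM.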

human Gcg receptor = biological target: T3, human Gcg receptor (Homo sapiens, UniProt P47871); experiment: [125I]-Glucagon binding (SPA), human Gcg receptor; settings: read-out: hGLcgR Ki, nM (SEM, n)
T3 construct: expressed in transfected cells; crude membranes
T3 sequence (P47871 26-477): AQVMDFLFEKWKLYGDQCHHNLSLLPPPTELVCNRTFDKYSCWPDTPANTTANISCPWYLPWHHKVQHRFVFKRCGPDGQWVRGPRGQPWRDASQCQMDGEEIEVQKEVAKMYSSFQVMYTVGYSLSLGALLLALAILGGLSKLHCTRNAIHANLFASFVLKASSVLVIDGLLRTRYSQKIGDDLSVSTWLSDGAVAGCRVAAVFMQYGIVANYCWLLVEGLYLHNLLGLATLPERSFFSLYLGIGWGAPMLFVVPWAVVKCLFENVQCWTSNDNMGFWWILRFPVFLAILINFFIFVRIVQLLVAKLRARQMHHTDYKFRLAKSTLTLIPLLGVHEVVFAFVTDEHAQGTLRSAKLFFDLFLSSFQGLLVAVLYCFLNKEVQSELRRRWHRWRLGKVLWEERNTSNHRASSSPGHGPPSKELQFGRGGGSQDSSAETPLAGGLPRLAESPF
Summary of the method: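 Scintillation counts are taken after membranes and WGA beads incubate and settle for 12 hours at room temperature. Buffer is 25 mM HEPES, pH 7.4, with CaCl2, MgCl2, bacitracin and Tween-20. Ki values, from four-parameter IC50 fits, are geometric means over independent days.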

[4] = biological target: T4, gastric inhibitory peptide receptor (GIPR) (Homo sapiens, UniProt P48546); experiment: cAMP pharmacological functional assay in presence of casein, hGIPR; type: cell-based; settings: HEK293 cells expressing hGIPR, 0.1% Casein, geometric mean; read-out: hGIPR cAMP Rel EC50 nM (SEM, n)
T4 sequence (P48546 22-466): T2 sequence (P48546 22-466)

[5] = 0.1% w/v hydrolyzed Casein, read-out: hGLP1R B-Arrestin2 Rel EC50
[6] = PathHunter β-arrestin-2 recruitment, 0.1% casein, read-out: hGLP1R B-Arrestin2 Rel EC50 uM (SEM, n)

Row | SMILES | EC50 (human GLP-1R [1]; [5]) | EC50 (human GLP-1R [1]; [6]) | Ki (human GIP receptor) | EC50 [2] | Ki (human GLP-1R [3]) | Ki (human Gcg receptor) | EC50 [4] | hGLP1R B-Arrestin2 % Top (human GLP-1R [1])
1 | CC[C@H](C)[C@H](NC(=O)[C@H](CC(C)C)NC(=O)[C@H](Cc1ccc(O)cc1)NC(=O)[C@@H](CCC(=O)O)NC(=O)[C@@H](NC(=O)[C@H](Cc1ccccc1)NC(=O)[C@H](C)NC(=O)C(C)(C)NC(=O)[C@H](CCC(N)=O)NC(=O)[C@H](C)NC(=O)[C@H](CCCCNC(=O)COCCOCCNC(=O)COCCOCCNC(=O)CC[C@H](NC(=O)CCCCCCCCCCCCCCCCC(=O)O)C(=O)O)NC(=O)[C@H](CCCN)NC(=O)[C@H](CC(=O)O)NC(=O)[C@H](CC(C)C)NC(=O)[C@](C)(CC(C)C)NC(=O)[C@@H](NC(=O)[C@H](CO)NC(=O)[C@H](Cc1ccc(O)cc1)NC(=O)[C@H](CC(=O)O)NC(=O)[C@H](CO)NC(=O)[C@@H](NC(=O)[C@H](Cc1ccccc1)NC(=O)[C@@H](NC(=O)CNC(=O)[C@H](CCC(=O)O)NC(=O)C(C)(C)NC(=O)[C@H](N)Cc1ccc(O)cc1)[C@@H](C)O)[C@@H](C)O)[C@@H](C)CC)C(C)C)C(=O)N[C@@H](C)C(=O)NCC(=O)NCC(=O)N1CCC[C@H]1C(=O)N[C@@H](CO)C(=O)N[C@@H](CO)C(=O)NCC(=O)N[C@@H](C)C(=O)N1CCC[C@H]1C(=O)N1CCC[C@H]1C(=O)N1CCC[C@H]1C(=O)N[C@@H](CO)C(N)=O [Example 364] (H-[dY][Aib]EGTFTSDYSI[αMeL]LD[Orn]K([AEEA-AEEA-γGlu-C18 diacid])AQ[Aib]AFV[dE]YLIAGGPSSGAPPPS-NH2) | > 12 µM | > 12 µM | 0.672 nM | 1 nM | 17.2 nM | > 1150 nM | 0.351 nM | –
2 | CC[C@H](C)[C@H](NC(=O)[C@H](CC(C)C)NC(=O)[C@H](Cc1ccc(O)cc1)NC(=O)[C@@H](CCC(=O)O)NC(=O)[C@@H](NC(=O)[C@H](Cc1ccccc1)NC(=O)[C@H](C)NC(=O)C(C)(C)NC(=O)[C@H](CCC(N)=O)NC(=O)[C@H](C)NC(=O)[C@H](CCCCNC(=O)COCCOCCNC(=O)COCCOCCNC(=O)CC[C@H](NC(=O)CCCCCCCCCCCCCCCCCCC(=O)O)C(=O)O)NC(=O)[C@H](CCCCN)NC(=O)[C@H](CC(=O)O)NC(=O)[C@H](CC(C)C)NC(=O)[C@](C)(CC(C)C)NC(=O)[C@@H](NC(=O)[C@H](CO)NC(=O)[C@H](Cc1ccc(O)cc1)NC(=O)[C@H](CC(=O)O)NC(=O)[C@H](CO)NC(=O)[C@@H](NC(=O)[C@H](Cc1ccccc1)NC(=O)[C@@H](NC(=O)CNC(=O)[C@H](CCC(=O)O)NC(=O)C(C)(C)NC(=O)[C@H](N)Cc1ccc(O)cc1)[C@@H](C)O)[C@@H](C)O)[C@@H](C)CC)C(C)C)C(=O)N[C@@H](C)C(=O)NCC(=O)NCC(=O)N1CCC[C@H]1C(=O)N[C@@H](CO)C(=O)N[C@@H](CO)C(=O)NCC(=O)N[C@@H](C)C(=O)N1CCC[C@H]1C(=O)N1CCC[C@H]1C(=O)N1CCC[C@H]1C(=O)N[C@@H](CO)C(N)=O [Example 361] (H-[dY][Aib]EGTFTSDYSI[αMeL]LDKK([AEEA-AEEA-γGlu-C20 diacid])AQ[Aib]AFV[dE]YLIAGGPSSGAPPPS-NH2) | – | 0.269 µM | – | 0.955 nM | – | – | 0.401 nM | 20.2%
3 | CC[C@H](C)[C@H](NC(=O)[C@H](CC(C)C)NC(=O)[C@H](Cc1ccc(O)cc1)NC(=O)[C@@H](CCC(=O)O)NC(=O)[C@@H](NC(=O)[C@H](Cc1ccccc1)NC(=O)[C@H](C)NC(=O)C(C)(C)NC(=O)[C@H](CCC(N)=O)NC(=O)[C@H](C)NC(=O)[C@H](CCCCNC(=O)COCCOCCNC(=O)COCCOCCNC(=O)CC[C@H](NC(=O)CCCCCCCCCCCCCCCCCCC(=O)O)C(=O)O)NC(=O)[C@H](CCCCN)NC(=O)[C@H](CC(=O)O)NC(=O)[C@H](CC(C)C)NC(=O)[C@](C)(CC(C)C)NC(=O)[C@@H](NC(=O)[C@H](CO)NC(=O)[C@H](Cc1ccc(O)cc1)NC(=O)[C@H](CC(=O)O)NC(=O)[C@H](CO)NC(=O)[C@@H](NC(=O)[C@H](Cc1ccccc1)NC(=O)[C@@H](NC(=O)CNC(=O)[C@H](CCC(=O)O)NC(=O)C(C)(C)NC(=O)[C@H](N)Cc1ccc(O)cc1)[C@@H](C)O)[C@@H](C)O)[C@@H](C)CC)[C@@H](C)CC)C(=O)N[C@@H](CCC(=O)O)C(=O)NCC(=O)NCC(=O)N1CCC[C@H]1C(=O)N[C@@H](CO)C(=O)N[C@@H](CO)C(=O)NCC(=O)N[C@@H](C)C(=O)N1CCC[C@H]1C(=O)N1CCC[C@H]1C(=O)N1CCC[C@H]1C(=O)N[C@@H](CO)C(N)=O [Example 356] | > 10.5 µM | > 10.5 µM | 0.35 nM | 0.506 nM | 10.3 nM | > 1010 nM | 0.386 nM | –
4 | CC[C@H](C)[C@H](NC(=O)[C@H](CC(C)C)NC(=O)[C@H](Cc1ccc(O)cc1)NC(=O)[C@@H](CCC(=O)O)NC(=O)[C@@H](NC(=O)[C@H](Cc1ccccc1)NC(=O)[C@H](C)NC(=O)C(C)(C)NC(=O)[C@H](CCC(N)=O)NC(=O)[C@H](C)NC(=O)[C@H](CCCCNC(=O)COCCOCCNC(=O)COCCOCCNC(=O)CC[C@H](NC(=O)CCCCCCCCCCCCCCCCCCC(=O)O)C(=O)O)NC(=O)[C@H](CCCN)NC(=O)[C@H](CC(=O)O)NC(=O)[C@H](CC(C)C)NC(=O)[C@](C)(CC(C)C)NC(=O)[C@@H](NC(=O)[C@H](CO)NC(=O)[C@H](Cc1ccc(O)cc1)NC(=O)[C@H](CC(=O)O)NC(=O)[C@H](CO)NC(=O)[C@@H](NC(=O)[C@H](Cc1ccccc1)NC(=O)[C@@H](NC(=O)CNC(=O)[C@H](CCC(=O)O)NC(=O)C(C)(C)NC(=O)[C@H](N)Cc1ccc(O)cc1)[C@@H](C)O)[C@@H](C)O)[C@@H](C)CC)[C@@H](C)CC)C(=O)N[C@@H](CCC(=O)O)C(=O)NCC(=O)NCC(=O)N1CCC[C@H]1C(=O)N[C@@H](CO)C(=O)N[C@@H](CO)C(=O)NCC(=O)N[C@@H](C)C(=O)N1CCC[C@H]1C(=O)N1CCC[C@H]1C(=O)N1CCC[C@H]1C(=O)N[C@@H](CO)C(N)=O [Example 357] | – | 0.118 µM | 0.316 nM | 0.181 nM | 7.02 nM | > 977 nM | 0.384 nM | 18.2%
5 | CC[C@H](C)[C@H](NC(=O)[C@H](CC(C)C)NC(=O)[C@H](Cc1ccc(O)cc1)NC(=O)[C@@H](CCC(=O)O)NC(=O)[C@@H](NC(=O)[C@H](Cc1ccccc1)NC(=O)[C@H](C)NC(=O)C(C)(C)NC(=O)[C@H](CCC(N)=O)NC(=O)[C@H](C)NC(=O)[C@H](CCCCNC(=O)COCCOCCNC(=O)COCCOCCNC(=O)CC[C@H](NC(=O)CCCCCCCCCCCCCCCCCCC(=O)O)C(=O)O)NC(=O)[C@H](CCCN)NC(=O)[C@H](CC(=O)O)NC(=O)[C@H](CC(C)C)NC(=O)[C@](C)(CC(C)C)NC(=O)[C@@H](NC(=O)[C@H](CO)NC(=O)[C@H](Cc1ccc(O)cc1)NC(=O)[C@H](CC(=O)O)NC(=O)[C@H](CO)NC(=O)[C@@H](NC(=O)[C@H](Cc1ccccc1)NC(=O)[C@@H](NC(=O)CNC(=O)[C@H](CCC(=O)O)NC(=O)C(C)(C)NC(=O)[C@H](N)Cc1ccc(O)cc1)[C@@H](C)O)[C@@H](C)O)[C@@H](C)CC)C(C)C)C(=O)N[C@@H](C)C(=O)NCC(=O)NCC(=O)N1CCC[C@H]1C(=O)N[C@@H](CO)C(=O)N[C@@H](CO)C(=O)NCC(=O)N[C@@H](C)C(=O)N1CCC[C@H]1C(=O)N1CCC[C@H]1C(=O)N1CCC[C@H]1C(=O)N[C@@H](CO)C(N)=O [Example 362] (H-[dY][Aib]EGTFTSDYSI[αMeL]LD[Orn]K([AEEA-AEEA-γGlu-C20 diacid])AQ[Aib]AFV[dE]YLIAGGPSSGAPPPS-NH2) | > 11 µM | > 11 µM | 0.337 nM | 0.365 nM | 6.95 nM | > 1050 nM | 0.302 nM | –
